Experimental data from paper PMC7269481, “ZN148 Is a Modular Synthetic Metallo-β-Lactamase Inhibitor That Reverses Carbapenem Resistance in Gram-Negative Pathogens In Vivo” (Antimicrobial Agents and Chemotherapy, 2020).
Read-outs that look alike come from different tables or passages of the source.

Key:
[1] = system: K. pneumoniae co-producing MBLs and class A/D serine carbapenemases; assay: Carbapenem MIC, K. pneumoniae co-producing MBLs and class D carbapenemases; type: cell-based
Protocol: (§1) MICs of carbapenems alone and in combination with inhibitors were determined by broth microdilution according to the Clinical and Laboratory Standards Institute (CLSI) guidelines ([48]) using either premade plates (TREK Diagnostic Systems/Thermo Fisher Scientific, East Grinstead, United Kingdom) with meropenem or in-house-prepared plates with meropenem, imipenem, and doripenem. ZN148 and other inhibitors were tested at a fixed concentration of 50 μM. Cation-adjusted Mueller-Hinton medium (TREK Diagnostic Systems/Thermo Fisher Scientific; Becton Dickinson, Franklin Lakes, NJ) were used as growth medium. The plates were incubated for 20 h at 37°C. ZN148, ZN222, ZN223, ZN228, and TPA were initially tested in combination with meropenem using two indicator strains: NDM-1-producing K. pneumoniae ([49], [50]) and VIM-2-producing P. aeruginosa ([51]). The activity of ZN148 were subsequently tested against two extended strain collections: (i) in combination with meropenem against MBL-producing Enterobacterales (n = 62), MBL-producing P. aeruginosa (n = 9) and MBL- and class D carbapenemase-coproducing Enterobacterales (n = 5) from the strain collection at the Norwegian National Advisory Unit on Detection of Antimicrobial Resistance and (ii) in combination with meropenem, imipenem, and doripenem against globally collected MBL-producing E. coli (n = 87), K. pneumoniae (n = 85), P. aeruginosa (n = 52), and A. baumannii (n = 6), MBL- and class A/D carbapenemase-coproducing E. coli (n = 11), K. pneumoniae (n = 15) and A. baumannii (n = 7) at IHMA Europe, Sàrl, Switzerland. E. coli ATCC 25922 and P. aeruginosa ATCC 27853 were used as quality control strains. The MBL inhibitors were also tested for intrinsic antibacterial activity against the strains.

[2] = system: NDM-1-producing K. pneumoniae K66-45; assay: Meropenem MIC, broth microdilution, indicator strain K66-45; type: cell-based; conditions: for MIC: Klebsiella pneumoniae
Protocol: as §1

E. coli with IMP (n=3) = assay: Meropenem MIC distribution, E. coli with IMP; type: cell-based; conditions: MEM alone or +50 µM ZN148
Protocol: MICs of carbapenems alone and in combination with inhibitors were determined by broth microdilution according to the Clinical and Laboratory Standards Institute (CLSI) guidelines ([48]) using either premade plates (TREK Diagnostic Systems/Thermo Fisher Scientific, East Grinstead, United Kingdom) with meropenem or in-house-prepared plates with meropenem, imipenem, and doripenem. ZN148 and other inhibitors were tested at a fixed concentration of 50 μM. Cation-adjusted Mueller-Hinton medium (TREK Diagnostic Systems/Thermo Fisher Scientific; Becton Dickinson, Franklin Lakes, NJ) were used as growth medium. The plates were incubated for 20 h at 37°C. ZN148, ZN222, ZN223, ZN228, and TPA were initially tested in combination with meropenem using two indicator strains: NDM-1-producing K. pneumoniae ([49], [50]) and VIM-2-producing P. aeruginosa ([51]). […]

[3] = system: MBL-producing Enterobacterales (n=234); assay: Meropenem MIC distribution, all MBL-producing Enterobacterales; type: cell-based; conditions: for No. of strains with indicated MIC: MEM alone or +50 µM ZN148
Protocol: as §1

[4] = system: NDM-1-producing K. pneumoniae K66-45; assay: Time-kill assay; type: cell-based
Protocol: To determine the kinetics of killing of the meropenem-ZN148 combination, NDM-1-producing K. pneumoniae K66-45 (1 × 10^6 CFU/ml) in cation-adjusted Mueller-Hinton broth II (Sigma-Aldrich, St. Louis, MO) was treated with either 4 mg/liter meropenem or a combination of 4 mg/liter meropenem plus 50 or 100 μM ZN148 and grown at 37°C with shaking (180 rpm). The cell number was determined over the course of 24 h by using a modified Miles-Misra method ([52]). Briefly, […] serial dilutions of culture in sterile PBS were spotted and dried on square (10 by 10 cm) Luria-Bertani agar (Oxoid, Basingstoke, UK) plates at room temperature before incubation at 37°C. The limit of detection was set as […] in […] of undiluted culture, representing 100 CFU/ml.

[5] = system: NDM-1-producing A. baumannii strains (n=6); assay: Carbapenem MIC, NDM-1-producing A. baumannii; type: cell-based
Protocol: as §1

[6] = system: VIM-2-producing P. aeruginosa K34-7; assay: Meropenem MIC, broth microdilution, indicator strain K34-7; type: cell-based
Protocol: as §1

VIM-2 = target: T1, VIM-2 (Escherichia coli, UniProt Q5U7L7); assay: Time-dependent inactivation kinetics of purified VIM-2 (nitrocefin); type: biochemical
T1 construct: made in house
Protocol: Protein expression and purification of NDM-1 and VIM-2 were performed as previously described ([36], [43], [57]). Stock solutions of purified NDM-1 and VIM-2 were prepared in 50 mM HEPES buffer (pH 7.5; Merck). Inhibition of NDM-1 and VIM-2 were determined for ZN148 and the analogues ZN222, ZN223, and ZN228 at different concentrations of inhibitor after preincubation times of 2, 8, 15, 25, and 32 min in 50 mM HEPES buffer (pH 7.5) supplemented with 1 μM ZnSO4 (Sigma-Aldrich) and bovine serum albumin (Sigma-Aldrich; final concentration, 2 μg/ml) at 25°C. Concentrations of 1 nM VIM-2 and 30 nM NDM-1 were used, and the reaction was initiated by the addition of 30 μM nitrocefin (Merck) for VIM-2 or 100 μM imipenem (Sigma-Aldrich) for NDM-1. The reaction was measured at 482 nm (VIM-2) or […] (NDM-1) in either standard 96-well plates (Thermo Fisher Scientific) for VIM-2 or UV-transparent 96-well plates (Corning, Kennebunk, ME) for NDM-1 at 25°C in a SpectraMax Plus plate reader (Molecular Devices). All of the enzyme and substrate concentrations indicated are the final concentrations in the assay. The enzyme activity as a percentage was calculated based on the initial velocity and compared to the control without inhibitor compound. All tests were performed at least in duplicates.
The observed rate constant (kobs) per inhibitor concentration was calculated from the slope of a semilog plot of the enzyme activity in percent versus preincubation time.
By fitting these values, the irreversible kinetic parameters maximum inactivation rate (kinact) and the inhibitor concentration that produces half-maximal rate of inactivation (KI) were obtained. Finally, the inhibitors were characterized by calculating kinact/KI. Where no saturation curve could be observed, KI and kinact were determined from the linear part of plot 1/kobs versus 1/[I].

[7] = system: MBL-producing P. aeruginosa clinical strains; assay: Carbapenem MIC, MBL-producing P. aeruginosa; type: cell-based; conditions: 50 μM ZN148; n = 52
Protocol: as §1

[8] = meropenem 4 mg/liter with either 50 or 100 μM ZN148

C[C@@H](O)[C@H]1C(=O)N2C(C(=O)O)=C(S[C@@H]3CN[C@H](C(=O)N(C)C)C3)[C@H](C)[C@H]12 [meropenem] showed an MIC ([1]; NDM + OXA-48-like strains, meropenem alone or with 50µM ZN148, one value per strain) of over 64 µg/mL, an MIC ([1]; NDM-1 + OXA-181 strain, meropenem alone or with 50µM ZN148) of over 64 µg/mL and an MIC ([1]; NDM-5 + OXA-181 strains, carbapenem alone or with 50µM ZN148, one value per strain) of over 64 µg/mL. For the same compound, the MIC ([2]; alone or in presence of 30 µM, 50 µM or 100 µM ZN148 (Table S6 title), read-out: MIC of meropenem) was over 32 µg/mL, the MIC ([2]; meropenem alone or +50 µM TPA or ZN148, read-out: Meropenem MIC) was 32 to 64 µg/mL and the “No. of strains with indicated MIC” value (E. coli with IMP (n=3); MIC 4 mg/L) was 1. The “No. of strains with indicated MIC” value (E. coli with IMP (n=3); MIC 16 mg/L) was 2, the MIC90 [3] was at least 64 µg/mL and the “No. of strains with indicated MIC” value ([3]; MIC 0.5 mg/L) was 1. For the same compound, the “No. of strains with indicated MIC” value ([3]; MIC 1 mg/L) was 2, the “No. of strains with indicated MIC” value ([3]; MIC 2 mg/L) was 3 and the “No. of strains with indicated MIC” value ([3]; MIC 4 mg/L) was 10. For the same compound, the “No. of strains with indicated MIC” value ([3]; MIC 8 mg/L) was 9, the “No. of strains with indicated MIC” value ([3]; MIC 16 mg/L) was 22 and the “No. of strains with indicated MIC” value ([3]; MIC 32 mg/L) was 35. For the same compound, the “No. of strains with indicated MIC” value ([3]; MIC ≥64 mg/L) was 152, the “cell number after 24 h” value ([4]; meropenem alone 4 mg/liter) was > 1 × 10^9 CFU/ml and the “initial reduction in cell numbers (bacteriostatic effect)” value ([4]; meropenem alone 4 mg/liter) was 2 log. It also gave an MIC ([5]; carbapenem alone or in combination with 50µM ZN148, one value per strain (n=6)) of over 64 µg/mL and an MIC ([6]; Pseudomonas aeruginosa, meropenem alone or +50 µM TPA or ZN148) of 32 to 64 µg/mL.
In the case of CN(C[C@H](O)[C@@H](O)[C@H](O)[C@H](O)CO)C(=O)c1ccc(CN(Cc2ccccn2)Cc2ccccn2)nc1 [ZN148], the “restoration of meropenem clinical susceptibility (EUCAST breakpoints)” value ([2]; inhibitor at 50 μM) is reported as “fully restored meropenem clinical susceptibility”, the “strains with meropenem MIC reduced to susceptible levels (≤2 mg/liter)” value ([3]; ZN148 at 50 μM, n = 234) is reported as over 98% and the “cell numbers after 8 h (below limit of detection)” value [4, 8] is reported as < 1 × 10^2 CFU/ml. For the same compound, the “killing effect of combination” value [4, 8] was “bactericidal”, the “regrowth within 24 h” value [4, 8] was “no regrowth” and the kinact (VIM-2) was 0.00262 s⁻¹. For the same compound, the kinact/KI (VIM-2) was 110 M⁻¹ s⁻¹, the “strains with restored clinical susceptibility, in combination with doripenem” value [7] was 15% and the “strains with restored clinical susceptibility, in combination with imipenem” value [7] was 25%. The “strains with restored clinical susceptibility, in combination with meropenem” value [7] was 17%, the “reduction of meropenem MIC” value ([5]; in four of six clinical strains, class D carbapenemase-negative) was over 2 fold and the “restoration of meropenem clinical susceptibility (EUCAST breakpoints)” value ([6]; inhibitor at 50 μM) was “fully restored meropenem clinical susceptibility”.
